Experimental data published in patent US20170246111A1, “ACTIVE-LOADED PARTICULATE MATERIALS FOR TOPICAL ADMINISTRATION” (PHARMASOL GMBH, priority 2014, published 2017).

What was measured:
[1] = 40 min
Protocol: 35.0% azithromycin physical mixture was as well dispersed in Milli-Q® water to get a final concentration of azithromycin of 5.6% in vials. Furthermore, 5.6% coarse drug powder was suspended in Milli-Q® water for comparison. The samples were stored at 25° C. shaking with 100 rpm in an Innova® 4230 shaker for 40 minutes. To separate the dissolved drug, the samples were first centrifuged (17,968×g; 10 minutes) and subsequently the supernatant was filtered (50 nm pore size, Whatman® 110603 filter). The drug concentration in such obtained sample was determined by HPLC.

[2] = at 25° C. in water, Mauludin PhD thesis 2008; cited from earlier work

| saturation solubility in water [1] [µg/mL] | SMILES | saturation solubility Cs [2] |
| --- | --- | --- |
| 93 | CC[C@H]1OC(=O)[C@H](C)[C@@H](O[C@H]2C[C@@](C)(OC)[C@@H](O)[C@H](C)O2)[C@H](C)[C@@H](O[C@@H]2O[C@H](C)C[C@H](N(C)C)[C@H]2O)[C@](C)(O)C[C@@H](C)CN(C)[C@H](C)[C@@H](O)[C@]1(C)O [azithromycin raw drug powder, azithromycin] | – |
| – | COc1ccc([C@@H]2CC(=O)c3c(O)cc(O[C@@H]4O[C@H](CO[C@@H]5O[C@@H](C)[C@H](O)[C@@H](O)[C@H]5O)[C@@H](O)[C@H](O)[C@H]4O)cc3O2)cc1O [hesperidin raw powder, hesperidin] | about 20 μg/ml |
